Data on four compounds can be found in ChEMBL document CHEMBL2074540, “Induction of multidrug resistance protein 3 (mrp3) in vivo is independent of constitutive androstane receptor” (Drug Metab Dispos, 2003).

Series [1] concerns the target ATP-binding cassette sub-family C member 3 (Mus musculus, UniProt B2RX12). Put plainly: TP_TRANSPORTER: Branched DNA Assay in vivo, liver of mouse. It counts as functional, organism-based.
Series [2] addresses ATP-binding cassette sub-family C member 3 (Rattus norvegicus, UniProt O88563). Kind of series: TP_TRANSPORTER: Branched DNA Assay in vivo, liver of WKY rat. The series is classed as functional, organism-based.

ATP-binding cassette sub-family C member 3 (Rattus norvegicus, UniProt O88563), sequence (O88563 whole entry): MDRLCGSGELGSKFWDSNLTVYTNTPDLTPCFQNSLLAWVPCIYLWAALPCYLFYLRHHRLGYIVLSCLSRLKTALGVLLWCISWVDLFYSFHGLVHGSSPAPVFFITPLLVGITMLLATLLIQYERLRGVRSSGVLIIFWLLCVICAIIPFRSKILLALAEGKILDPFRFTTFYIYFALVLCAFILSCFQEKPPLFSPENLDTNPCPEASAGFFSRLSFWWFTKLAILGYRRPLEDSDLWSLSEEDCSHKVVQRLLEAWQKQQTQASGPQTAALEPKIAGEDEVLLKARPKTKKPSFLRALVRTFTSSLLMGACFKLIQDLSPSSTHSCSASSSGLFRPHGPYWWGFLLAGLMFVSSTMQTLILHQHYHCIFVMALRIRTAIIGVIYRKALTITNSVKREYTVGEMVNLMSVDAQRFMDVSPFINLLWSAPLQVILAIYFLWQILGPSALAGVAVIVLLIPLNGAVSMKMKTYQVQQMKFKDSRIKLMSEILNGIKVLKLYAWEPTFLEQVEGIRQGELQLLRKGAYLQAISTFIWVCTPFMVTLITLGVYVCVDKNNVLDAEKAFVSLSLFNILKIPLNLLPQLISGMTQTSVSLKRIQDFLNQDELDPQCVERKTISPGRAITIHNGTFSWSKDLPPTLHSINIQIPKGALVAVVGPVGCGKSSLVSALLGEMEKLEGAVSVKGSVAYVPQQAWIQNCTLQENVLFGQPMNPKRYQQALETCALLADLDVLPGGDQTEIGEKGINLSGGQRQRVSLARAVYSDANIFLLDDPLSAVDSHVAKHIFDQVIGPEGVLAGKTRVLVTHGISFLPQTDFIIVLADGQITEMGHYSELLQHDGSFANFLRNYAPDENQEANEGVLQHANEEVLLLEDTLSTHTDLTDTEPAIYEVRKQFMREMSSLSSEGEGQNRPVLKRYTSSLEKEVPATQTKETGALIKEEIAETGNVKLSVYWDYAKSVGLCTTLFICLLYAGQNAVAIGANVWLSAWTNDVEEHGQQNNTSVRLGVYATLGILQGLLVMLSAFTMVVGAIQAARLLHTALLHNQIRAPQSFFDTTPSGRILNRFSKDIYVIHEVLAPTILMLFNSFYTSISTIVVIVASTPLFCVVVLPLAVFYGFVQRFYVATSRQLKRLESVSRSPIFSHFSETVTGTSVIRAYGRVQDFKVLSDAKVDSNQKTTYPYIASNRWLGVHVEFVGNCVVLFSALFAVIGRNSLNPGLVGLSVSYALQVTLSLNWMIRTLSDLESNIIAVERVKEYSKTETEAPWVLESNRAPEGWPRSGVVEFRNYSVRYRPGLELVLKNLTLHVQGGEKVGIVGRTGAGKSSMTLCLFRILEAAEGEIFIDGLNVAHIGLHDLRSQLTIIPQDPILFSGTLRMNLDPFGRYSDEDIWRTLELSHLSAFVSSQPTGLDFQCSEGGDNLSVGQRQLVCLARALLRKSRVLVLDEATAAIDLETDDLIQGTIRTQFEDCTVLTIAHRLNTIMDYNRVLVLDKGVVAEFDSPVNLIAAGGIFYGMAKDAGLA
ATP-binding cassette sub-family C member 3 (Mus musculus, UniProt B2RX12), sequence (B2RX12 whole entry): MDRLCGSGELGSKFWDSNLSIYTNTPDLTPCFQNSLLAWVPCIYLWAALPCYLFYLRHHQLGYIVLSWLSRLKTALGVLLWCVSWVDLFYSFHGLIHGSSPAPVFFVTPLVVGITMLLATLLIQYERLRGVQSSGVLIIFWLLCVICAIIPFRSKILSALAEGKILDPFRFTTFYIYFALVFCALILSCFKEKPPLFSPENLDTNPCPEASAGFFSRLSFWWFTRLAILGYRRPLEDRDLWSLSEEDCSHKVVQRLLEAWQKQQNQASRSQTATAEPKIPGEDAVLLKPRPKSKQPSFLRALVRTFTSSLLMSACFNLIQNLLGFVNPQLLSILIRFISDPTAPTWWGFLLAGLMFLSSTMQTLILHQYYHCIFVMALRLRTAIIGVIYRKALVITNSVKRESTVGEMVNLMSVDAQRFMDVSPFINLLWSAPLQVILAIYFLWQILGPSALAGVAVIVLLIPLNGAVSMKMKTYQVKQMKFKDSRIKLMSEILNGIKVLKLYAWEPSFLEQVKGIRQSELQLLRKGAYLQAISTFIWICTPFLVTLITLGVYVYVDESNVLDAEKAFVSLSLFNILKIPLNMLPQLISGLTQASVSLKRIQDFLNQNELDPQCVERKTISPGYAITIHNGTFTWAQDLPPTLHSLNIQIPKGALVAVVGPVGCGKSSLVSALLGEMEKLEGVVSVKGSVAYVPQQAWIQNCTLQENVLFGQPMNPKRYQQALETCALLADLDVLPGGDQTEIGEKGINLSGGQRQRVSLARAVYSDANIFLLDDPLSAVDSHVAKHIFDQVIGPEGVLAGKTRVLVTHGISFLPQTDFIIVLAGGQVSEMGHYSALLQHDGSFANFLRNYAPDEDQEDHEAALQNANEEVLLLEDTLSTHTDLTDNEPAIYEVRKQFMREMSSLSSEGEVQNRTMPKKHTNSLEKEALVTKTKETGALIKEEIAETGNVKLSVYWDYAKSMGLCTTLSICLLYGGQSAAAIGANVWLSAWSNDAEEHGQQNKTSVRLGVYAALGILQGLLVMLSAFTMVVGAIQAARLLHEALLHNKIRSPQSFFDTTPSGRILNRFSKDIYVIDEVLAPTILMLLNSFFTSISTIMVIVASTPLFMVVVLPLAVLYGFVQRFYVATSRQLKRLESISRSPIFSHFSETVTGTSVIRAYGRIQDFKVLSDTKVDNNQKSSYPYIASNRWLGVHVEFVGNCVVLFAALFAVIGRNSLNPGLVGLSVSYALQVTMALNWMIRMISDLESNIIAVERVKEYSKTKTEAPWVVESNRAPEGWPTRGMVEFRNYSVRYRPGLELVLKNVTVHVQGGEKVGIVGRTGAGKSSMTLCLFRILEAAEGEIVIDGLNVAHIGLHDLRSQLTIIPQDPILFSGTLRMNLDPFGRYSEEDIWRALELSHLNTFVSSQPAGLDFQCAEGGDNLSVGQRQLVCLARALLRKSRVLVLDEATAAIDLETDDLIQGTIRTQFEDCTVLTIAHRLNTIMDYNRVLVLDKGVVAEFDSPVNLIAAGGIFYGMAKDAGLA

For `Cc1c(-c2cnccn2)ssc1=S` [OLTIPRAZ], the Activity entry in series [1] and in series [2] was “inducer []” in each case.
As for `CCC1(c2ccccc2)C(=O)NC(=O)NC1=O` [PHENOBARBITAL], the Activity entry in series [1] and in series [2] was “inducer []” throughout.
`c1ccc([C@H]2O[C@@H]2c2ccccc2)cc1` (relative stereo): the Activity result in series [1] and in series [2] was “inducer []” throughout.
For the compound `C=CCSCC=C` [DIALLYL SULFIDE], the Activity entry in series [1] and in series [2] was “inducer []” throughout.
